Source: publication PMC10700596 (Nature Communications, 2023)
Values joined by “and” are separate entries in the source; they are usually repeats but may differ in a detail not shown here. Identical values can stand only once.

What was measured:
EP2R = EP2R (Homo sapiens, UniProt P43116); experiment: Radioligand (3H-PGE2) displacement assay at EP2R; format: binding
EP3R = EP3R (Homo sapiens, UniProt P43115); experiment: Radioligand (3H-PGE2) displacement assay at EP3R; format: binding
BMPR2 = BMPR2 (Homo sapiens, UniProt Q13873); experiment: biochemical; format: binding; settings: for Signal (qPCR): BMPR2
Chain of BMPR2 (Q13873 27-1038): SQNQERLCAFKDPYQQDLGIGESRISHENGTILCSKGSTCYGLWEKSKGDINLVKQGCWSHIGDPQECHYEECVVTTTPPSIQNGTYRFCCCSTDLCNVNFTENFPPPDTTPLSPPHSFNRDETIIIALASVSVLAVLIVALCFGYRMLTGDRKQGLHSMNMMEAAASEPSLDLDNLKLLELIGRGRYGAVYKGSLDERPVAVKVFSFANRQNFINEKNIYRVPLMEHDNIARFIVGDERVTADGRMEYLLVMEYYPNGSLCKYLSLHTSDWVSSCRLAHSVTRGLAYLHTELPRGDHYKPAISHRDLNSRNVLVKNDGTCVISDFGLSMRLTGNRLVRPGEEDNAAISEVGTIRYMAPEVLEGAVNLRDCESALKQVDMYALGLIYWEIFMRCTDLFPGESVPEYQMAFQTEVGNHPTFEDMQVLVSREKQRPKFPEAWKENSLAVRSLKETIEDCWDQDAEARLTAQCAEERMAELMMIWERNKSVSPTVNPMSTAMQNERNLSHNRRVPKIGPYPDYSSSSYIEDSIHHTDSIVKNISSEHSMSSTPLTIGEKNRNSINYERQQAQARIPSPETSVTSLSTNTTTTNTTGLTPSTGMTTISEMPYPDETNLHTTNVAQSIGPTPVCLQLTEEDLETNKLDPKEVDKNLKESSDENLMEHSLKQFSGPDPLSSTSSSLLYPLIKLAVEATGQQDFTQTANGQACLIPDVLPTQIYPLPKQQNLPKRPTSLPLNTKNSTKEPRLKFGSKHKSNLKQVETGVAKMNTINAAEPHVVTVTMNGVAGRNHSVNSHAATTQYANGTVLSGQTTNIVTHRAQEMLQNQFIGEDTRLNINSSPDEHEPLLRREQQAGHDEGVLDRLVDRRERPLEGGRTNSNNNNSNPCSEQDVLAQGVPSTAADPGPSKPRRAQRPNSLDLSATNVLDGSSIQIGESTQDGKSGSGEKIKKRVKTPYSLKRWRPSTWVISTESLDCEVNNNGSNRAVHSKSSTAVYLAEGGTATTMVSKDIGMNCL
Source text: Supplementary Figure 7: Non-GPCR off-target screening for 74. a)-e) Dose-response curves of 74 at
proliferator-activated receptor gamma (PPARγ, Eurofins item G124). Data in a)-e) and g)-i) represent two
technical replicates. Source data are provided as a Source Data file.

CDK9 = CDK9 (Homo sapiens, UniProt P50750); experiment: biochemical; format: binding; settings: 10000 nM; read-out: Percent Control
CSNK1D = CSNK1D (Homo sapiens, UniProt P48730); experiment: biochemical; format: binding; settings: 10000 nM; read-out: Percent Control
FGFR3 = FGFR3 (Homo sapiens, UniProt P22607); experiment: biochemical; format: binding; settings: 10000 nM; read-out: Percent Control
FLT3 = FLT3 (Homo sapiens, UniProt P36888); experiment: biochemical; format: binding; settings: 10000 nM; read-out: Percent Control
Chain of FLT3 (P36888 27-993): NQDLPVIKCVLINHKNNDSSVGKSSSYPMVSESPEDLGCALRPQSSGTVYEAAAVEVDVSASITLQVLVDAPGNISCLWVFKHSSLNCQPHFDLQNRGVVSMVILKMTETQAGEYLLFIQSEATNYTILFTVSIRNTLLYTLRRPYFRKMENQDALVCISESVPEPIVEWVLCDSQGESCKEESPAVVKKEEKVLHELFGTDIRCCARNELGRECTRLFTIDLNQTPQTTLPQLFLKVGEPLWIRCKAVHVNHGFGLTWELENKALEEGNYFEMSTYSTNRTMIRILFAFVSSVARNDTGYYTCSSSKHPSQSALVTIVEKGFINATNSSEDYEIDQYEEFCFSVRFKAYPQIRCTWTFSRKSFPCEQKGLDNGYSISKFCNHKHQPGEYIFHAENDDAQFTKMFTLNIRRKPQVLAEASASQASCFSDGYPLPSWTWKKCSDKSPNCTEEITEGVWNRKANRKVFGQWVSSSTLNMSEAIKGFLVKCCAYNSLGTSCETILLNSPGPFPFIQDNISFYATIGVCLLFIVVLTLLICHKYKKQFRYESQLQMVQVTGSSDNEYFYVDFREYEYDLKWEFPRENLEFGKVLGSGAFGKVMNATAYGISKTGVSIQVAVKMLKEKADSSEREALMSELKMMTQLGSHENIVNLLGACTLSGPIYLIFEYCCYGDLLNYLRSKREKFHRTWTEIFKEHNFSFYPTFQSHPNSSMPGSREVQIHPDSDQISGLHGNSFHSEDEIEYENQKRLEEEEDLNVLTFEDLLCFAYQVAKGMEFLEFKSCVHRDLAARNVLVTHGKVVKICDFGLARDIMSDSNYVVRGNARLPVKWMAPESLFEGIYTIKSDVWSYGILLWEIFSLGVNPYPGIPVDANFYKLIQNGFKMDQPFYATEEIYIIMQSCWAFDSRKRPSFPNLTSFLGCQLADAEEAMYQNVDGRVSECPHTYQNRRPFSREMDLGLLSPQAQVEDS

IGF1R = IGF1R (Homo sapiens, UniProt P08069); experiment: biochemical; format: binding; settings: 10000 nM; read-out: Percent Control
Source text: (§1) Source data are provided as a Source Data file.

KIT = KIT (Homo sapiens, UniProt P10721); experiment: biochemical; format: binding; settings: 10000 nM; read-out: Percent Control
Source text: as §1

KIT(D816V) = KIT(D816V) (Homo sapiens, UniProt P10721, D816V); experiment: biochemical; format: binding; settings: 10000 nM; read-out: Percent Control
Source text: as §1

KIT(V559D,T670I) = KIT(V559D,T670I) (Homo sapiens, UniProt P10721, T670I/V559D); experiment: biochemical; format: binding; settings: 10000 nM; read-out: Percent Control
Source text: as §1

LKB1 = LKB1 (Homo sapiens, UniProt Q15831); experiment: biochemical; format: binding; settings: 10000 nM; read-out: Percent Control
Source text: as §1

MAP3K4 = MAP3K4 (Homo sapiens, UniProt Q9Y6R4); experiment: biochemical; format: binding; settings: 10000 nM; read-out: Percent Control
Source text: as §1

MAPKAPK2 = MAPKAPK2 (Homo sapiens, UniProt P49137); experiment: biochemical; format: binding; settings: 10000 nM; read-out: Percent Control
Source text: as §1

MARK3 = MARK3 (Homo sapiens, UniProt P27448); experiment: biochemical; format: binding; settings: 10000 nM; read-out: Percent Control
Source text: as §1

MEK1 = MEK1 (Homo sapiens, UniProt Q02750); experiment: biochemical; format: binding; settings: 10000 nM; read-out: Percent Control
Source text: as §1

MEK2 = MEK2 (Homo sapiens, UniProt P36507); experiment: biochemical; format: binding; settings: 10000 nM; read-out: Percent Control
Source text: as §1

MKNK1 = MKNK1 (Homo sapiens, UniProt Q9BUB5); experiment: biochemical; format: binding; settings: 10000 nM; read-out: Percent Control
Source text: as §1

MKNK2 = MKNK2 (Homo sapiens, UniProt Q9HBH9); experiment: biochemical; format: binding; settings: 10000 nM; read-out: Percent Control
Source text: as §1

MLK1 = MLK1 (Homo sapiens, UniProt P80192); experiment: biochemical; format: binding; settings: 10000 nM; read-out: Percent Control
Chain of MLK1 (P80192 whole entry): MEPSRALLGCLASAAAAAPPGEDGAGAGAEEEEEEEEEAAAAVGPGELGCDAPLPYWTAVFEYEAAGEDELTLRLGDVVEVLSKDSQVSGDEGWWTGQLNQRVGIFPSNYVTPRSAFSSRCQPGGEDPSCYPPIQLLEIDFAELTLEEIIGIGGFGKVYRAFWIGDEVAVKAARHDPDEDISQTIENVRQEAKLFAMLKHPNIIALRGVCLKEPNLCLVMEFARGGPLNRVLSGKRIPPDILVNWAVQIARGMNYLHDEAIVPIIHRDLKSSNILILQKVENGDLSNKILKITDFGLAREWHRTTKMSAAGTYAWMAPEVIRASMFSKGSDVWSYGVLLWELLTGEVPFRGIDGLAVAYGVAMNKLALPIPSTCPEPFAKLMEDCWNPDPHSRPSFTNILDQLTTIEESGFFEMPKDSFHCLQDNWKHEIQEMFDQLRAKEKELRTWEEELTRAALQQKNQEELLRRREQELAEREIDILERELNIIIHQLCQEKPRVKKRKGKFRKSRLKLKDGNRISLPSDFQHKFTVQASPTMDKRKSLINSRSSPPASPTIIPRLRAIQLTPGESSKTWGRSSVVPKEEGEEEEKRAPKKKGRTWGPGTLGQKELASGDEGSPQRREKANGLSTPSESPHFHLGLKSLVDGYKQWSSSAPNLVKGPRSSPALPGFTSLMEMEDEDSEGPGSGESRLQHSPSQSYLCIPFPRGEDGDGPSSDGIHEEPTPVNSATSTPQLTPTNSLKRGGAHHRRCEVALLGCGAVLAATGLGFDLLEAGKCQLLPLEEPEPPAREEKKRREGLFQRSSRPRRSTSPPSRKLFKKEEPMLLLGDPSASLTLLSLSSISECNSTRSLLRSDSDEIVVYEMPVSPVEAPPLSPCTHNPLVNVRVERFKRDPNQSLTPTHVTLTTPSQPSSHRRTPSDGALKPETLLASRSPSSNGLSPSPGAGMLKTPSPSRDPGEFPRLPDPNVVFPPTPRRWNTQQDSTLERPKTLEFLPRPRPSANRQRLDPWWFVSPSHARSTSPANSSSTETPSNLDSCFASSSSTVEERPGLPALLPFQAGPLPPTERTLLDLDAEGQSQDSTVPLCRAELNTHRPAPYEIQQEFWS
Source text: as §1

PAK1 = PAK1 (Homo sapiens, UniProt Q13153); experiment: biochemical; format: binding; settings: 10000 nM; read-out: Percent Control
Source text: as §1

PAK2 = PAK2 (Homo sapiens, UniProt Q13177); experiment: biochemical; format: binding; settings: 10000 nM; read-out: Percent Control
Source text: as §1

PAK4 = PAK4 (Homo sapiens, UniProt O96013); experiment: biochemical; format: binding; settings: 10000 nM; read-out: Percent Control
Source text: as §1

PCTK1 = PCTK1 (Homo sapiens, UniProt Q00536); experiment: biochemical; format: binding; settings: 10000 nM; read-out: Percent Control
Source text: as §1

PDGFRA = PDGFRA (Homo sapiens, UniProt P16234); experiment: biochemical; format: binding; settings: 10000 nM; read-out: Percent Control
Chain of PDGFRA (P16234 24-1089): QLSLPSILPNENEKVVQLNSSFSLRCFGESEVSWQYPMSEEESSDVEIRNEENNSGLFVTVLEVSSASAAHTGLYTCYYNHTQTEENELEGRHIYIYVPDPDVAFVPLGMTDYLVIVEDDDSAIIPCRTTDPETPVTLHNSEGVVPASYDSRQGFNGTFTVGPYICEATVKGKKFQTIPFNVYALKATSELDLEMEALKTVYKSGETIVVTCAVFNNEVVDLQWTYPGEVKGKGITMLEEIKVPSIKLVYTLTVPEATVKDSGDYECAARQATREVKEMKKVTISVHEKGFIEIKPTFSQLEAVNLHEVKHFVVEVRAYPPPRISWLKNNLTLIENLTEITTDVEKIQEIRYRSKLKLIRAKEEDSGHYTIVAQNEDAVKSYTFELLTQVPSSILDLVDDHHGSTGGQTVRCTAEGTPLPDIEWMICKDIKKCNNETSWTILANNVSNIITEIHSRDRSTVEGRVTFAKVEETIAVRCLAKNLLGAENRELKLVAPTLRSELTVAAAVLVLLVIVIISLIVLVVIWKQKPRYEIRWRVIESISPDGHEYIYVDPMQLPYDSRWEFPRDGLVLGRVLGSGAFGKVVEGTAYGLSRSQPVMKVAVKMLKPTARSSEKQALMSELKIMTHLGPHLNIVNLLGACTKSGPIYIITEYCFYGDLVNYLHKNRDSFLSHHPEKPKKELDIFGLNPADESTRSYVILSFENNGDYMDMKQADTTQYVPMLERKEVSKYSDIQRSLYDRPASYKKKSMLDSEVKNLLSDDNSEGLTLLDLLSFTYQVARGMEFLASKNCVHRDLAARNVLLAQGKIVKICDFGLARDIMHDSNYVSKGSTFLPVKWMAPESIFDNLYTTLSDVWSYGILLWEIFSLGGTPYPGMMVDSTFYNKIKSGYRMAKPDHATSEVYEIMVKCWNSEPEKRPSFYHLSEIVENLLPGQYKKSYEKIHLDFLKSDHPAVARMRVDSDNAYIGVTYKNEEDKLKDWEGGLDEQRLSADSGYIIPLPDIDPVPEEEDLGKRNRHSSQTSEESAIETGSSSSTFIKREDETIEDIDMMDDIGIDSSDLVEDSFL
Source text: as §1

PDGFRB = PDGFRB (Homo sapiens, UniProt P09619); experiment: biochemical; format: binding; settings: 10000 nM; read-out: Percent Control
Source text: as §1

PIK3C2B = PIK3C2B (Homo sapiens, UniProt O00750); experiment: biochemical; format: binding; settings: 10000 nM; read-out: Percent Control
Source text: as §1

PIM2 = PIM2 (Homo sapiens, UniProt Q9P1W9); experiment: biochemical; format: binding; settings: 10000 nM; read-out: Percent Control
Source text: as §1

PIM3 = PIM3 (Homo sapiens, UniProt Q86V86); experiment: biochemical; format: binding; settings: 10000 nM; read-out: Percent Control
Source text: as §1

PKAC-alpha = PKAC-alpha (Homo sapiens, UniProt P17612); experiment: biochemical; format: binding; settings: 10000 nM; read-out: Percent Control
Source text: as §1

PLK1 = PLK1 (Homo sapiens, UniProt P53350); experiment: biochemical; format: binding; settings: 10000 nM; read-out: Percent Control
Source text: as §1

PLK3 = PLK3 (Homo sapiens, UniProt Q9H4B4); experiment: biochemical; format: binding; settings: 10000 nM; read-out: Percent Control
Source text: as §1

PLK4 = PLK4 (Homo sapiens, UniProt O00444); experiment: biochemical; format: binding; settings: 10000 nM; read-out: Percent Control
Source text: as §1

RAF1 = RAF1 (Homo sapiens, UniProt P04049); experiment: biochemical; format: binding; settings: 10000 nM; read-out: Percent Control
Source text: as §1

RET = RET (Homo sapiens, UniProt P07949); experiment: biochemical; format: binding; settings: 10000 nM; read-out: Percent Control
Source text: as §1

RIOK2 = RIOK2 (Homo sapiens, UniProt Q9BVS4); experiment: biochemical; format: binding; settings: 10000 nM; read-out: Percent Control
Chain of RIOK2 (Q9BVS4 whole entry): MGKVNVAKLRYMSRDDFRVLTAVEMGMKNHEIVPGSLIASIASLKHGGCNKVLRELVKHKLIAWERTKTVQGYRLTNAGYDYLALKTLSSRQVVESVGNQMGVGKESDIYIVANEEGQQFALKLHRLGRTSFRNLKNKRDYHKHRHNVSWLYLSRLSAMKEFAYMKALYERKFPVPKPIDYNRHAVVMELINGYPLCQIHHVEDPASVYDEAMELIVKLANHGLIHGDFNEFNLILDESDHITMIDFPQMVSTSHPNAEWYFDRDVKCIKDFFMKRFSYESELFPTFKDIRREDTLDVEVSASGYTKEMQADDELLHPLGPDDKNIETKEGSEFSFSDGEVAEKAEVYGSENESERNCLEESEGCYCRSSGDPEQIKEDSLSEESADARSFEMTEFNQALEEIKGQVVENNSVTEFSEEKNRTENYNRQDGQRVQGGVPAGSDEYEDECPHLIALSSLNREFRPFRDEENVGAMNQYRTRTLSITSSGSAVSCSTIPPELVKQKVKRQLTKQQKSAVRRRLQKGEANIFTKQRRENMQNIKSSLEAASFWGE
Source text: as §1

VEGFR2 = VEGFR2 (Homo sapiens, UniProt P35968); experiment: biochemical; format: binding; settings: 10000 nM; read-out: Percent Control
Source text: as §1

p38-beta = p38-beta (Homo sapiens, UniProt Q15759); experiment: biochemical; format: binding; settings: 10000 nM; read-out: Percent Control
Source text: as §1

IKK-beta = IKK-beta (Homo sapiens, UniProt O14920); experiment: biochemical; format: binding; settings: 10000 nM; read-out: Percent Control
mice = format: in vivo; settings: absence of injury

Chain of EP3R (P43115 whole entry): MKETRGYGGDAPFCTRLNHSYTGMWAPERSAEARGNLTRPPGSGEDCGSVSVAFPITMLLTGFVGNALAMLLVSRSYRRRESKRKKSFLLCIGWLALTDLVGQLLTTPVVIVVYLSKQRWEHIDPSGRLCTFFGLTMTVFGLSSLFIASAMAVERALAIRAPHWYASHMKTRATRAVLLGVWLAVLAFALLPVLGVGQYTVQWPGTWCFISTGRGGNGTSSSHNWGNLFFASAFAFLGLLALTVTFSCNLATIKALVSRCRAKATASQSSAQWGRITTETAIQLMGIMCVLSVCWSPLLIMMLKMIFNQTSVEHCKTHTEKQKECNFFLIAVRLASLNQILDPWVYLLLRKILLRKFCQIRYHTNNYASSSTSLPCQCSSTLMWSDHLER

O=C(O)C1CCC2(CC1)CC(Nc1ncnc3[nH]c4c(F)cccc4c13)C2 (stereo not drawn) [Compound 74, OC(=O)C1CCC2(CC(C2)NC=3N=CN=C4NC=5C(F)=CC=CC5C34)CC1]
binding to EP2 receptor (EP2R): no binding | binding to EP3 receptor (EP3R): no binding | remaining activity at 10 µM (BMPR2; 10000 nM, read-out: Percent Control): 0% | Kd (BMPR2; BMPR2, dose-response): 30 nM | Signal (qPCR) (BMPR2; compound 1e-5 nM): 3.65e-5 and 5.32e-5 | Signal (qPCR) (BMPR2; compound 0.0001 nM): 5.46e-5 and 5.63e-5 | Signal (qPCR) (BMPR2; compound 0.001 nM): 6.07e-5 and 6.11e-5 | Signal (qPCR) (BMPR2; compound 0.169 nM): 4.64e-5 and 4.8e-5 | Signal (qPCR) (BMPR2; compound 0.508 nM): 4.94e-5 and 5.14e-5 | Signal (qPCR) (BMPR2; compound 1.52 nM): 5.5e-5 and 5.39e-5 | Signal (qPCR) (BMPR2; compound 4.57 nM): 5.07e-5 and 5.31e-5 | Signal (qPCR) (BMPR2; compound 13.7 nM): 3.76e-5 and 3.48e-5 | Signal (qPCR) (BMPR2; compound 41.2 nM): 2.19e-5 and 2.2e-5 | Signal (qPCR) (BMPR2; compound 123 nM): 7.98e-6 and 7.65e-6 | Signal (qPCR) (BMPR2; compound 370 nM): 1.69e-6 and 1.57e-6 | Signal (qPCR) (BMPR2; compound 3330 nM): 4.07e-8 and 4.89e-8 | Signal (qPCR) (BMPR2; compound 10000 nM): 1.28e-8 and 1.26e-8 | remaining activity at 10 µM (CDK9): 97% | remaining activity at 10 µM (CSNK1D): 3.2% | remaining activity at 10 µM (FGFR3): 81% | remaining activity at 10 µM (FLT3): 26% | remaining activity at 10 µM (IGF1R): 100% | remaining activity at 10 µM (KIT): 75% | remaining activity at 10 µM (KIT(D816V)): 76% | remaining activity at 10 µM (KIT(V559D,T670I)): 56% | remaining activity at 10 µM (LKB1): 97% | remaining activity at 10 µM (MAP3K4): 92% | remaining activity at 10 µM (MAPKAPK2): 98% | remaining activity at 10 µM (MARK3): 81% | remaining activity at 10 µM (MEK1): 24% | remaining activity at 10 µM (MEK2): 23% | remaining activity at 10 µM (MKNK1): 72% | remaining activity at 10 µM (MKNK2): 62% | remaining activity at 10 µM (MLK1): 45% | remaining activity at 10 µM (PAK1): 76% | remaining activity at 10 µM (PAK2): 66% | remaining activity at 10 µM (PAK4): 65% | remaining activity at 10 µM (PCTK1): 94% | remaining activity at 10 µM (PDGFRA): 35% | remaining activity at 10 µM (PDGFRB): 60% | remaining activity at 10 µM (PIK3C2B): 74% | remaining activity at 10 µM (PIM2): 100% | remaining activity at 10 µM (PIM3): 53% | remaining activity at 10 µM (PKAC-alpha): 99% | remaining activity at 10 µM (PLK1): 100% | remaining activity at 10 µM (PLK3): 97% | remaining activity at 10 µM (PLK4): 34% | remaining activity at 10 µM (RAF1): 98% | remaining activity at 10 µM (RET): 5.9% | remaining activity at 10 µM (RIOK2): 54% | remaining activity at 10 µM (VEGFR2): 31% | remaining activity at 10 µM (p38-beta): 79% | remaining activity at 10 µM (IKK-beta): 3.2%

O=C([O-])C1CCC2(CC1)CC(Nc1ncnc3[nH]c4c(F)cccc4c13)C2.[Na+] (stereo not drawn) [Compound 77, [Na+].[O-]C(=O)C1CCC2(CC(C2)NC=3N=CN=C4NC=5C(F)=CC=CC5C34)CC1]
effect on baseline mechanical thresholds (mice): no effect
